Assay results: paper PMC7896091, “Synthesis of novel phytol-derived γ-butyrolactones and evaluation of their biological activity” (Scientific Reports, 2021)
One block for each compound: values may come before it.

Legend:
Myzus persicae = test: EPG monitoring of aphid probing and feeding (no-choice test); assay type: in vivo; conditions: 8-h EPG; for Mean duration of probing (C + G + E) / Number of probes / Total duration of pathway (C) / Total duration of phloem phase (E) / Total duration of probing (C + G + E): 0.1% solution, n = 12; for Mean duration of probing (C + G + E) / Number of probes / Total duration of pathway (C) / Total duration of phloem phase (E) / Total duration of probing (C + G + E) / Number of probes before first phloem phase / Time from first probe to first phloem phase / Duration of first phloem phase / Total duration of phloem salivation E1 / Total duration of phloem sap ingestion E2 / Number of probes < 3 min: mean ± SE; for Number of probes before first phloem phase / Time from first probe to first phloem phase: activities in non-phloem tissues; for Number of probes before first phloem phase / Time from first probe to first phloem phase / Duration of first phloem phase / Total duration of phloem salivation E1 / Total duration of phloem sap ingestion E2 / Number of probes < 3 min: n = 10-12; for Duration of first phloem phase / Total duration of phloem salivation E1 / Total duration of phloem sap ingestion E2: activities in sieve elements; for Number of probes < 3 min: before first phloem phase; for Proportion of salivation in phloem phase: (duration of E1 / duration of E1 + E2)*100; for Proportion of phloem phase in total probing: index = duration of phloem phase E / duration of probing C + G + E
Protocol: The peach potato aphids Myzus persicae (Sulzer) and the Chinese cabbage Brassica rapa subsp. pekinensis (Lour.) Hanelt were reared in laboratory at 20 °C, 65% r.h., and L16:8D photoperiod. One to seven days old apterous females of M. persicae and 3-week old plants with 4–5 fully developed leaves were used for experiments. M. persicae were obtained from the laboratory culture maintained at the Department of Botany and Ecology for many generations since 2000. All experiments were carried out under the same conditions of temperature, relative humidity, and photoperiod. The bioassays were started at 10–11.a.m. Each compound was dissolved in 70% ethanol to obtain the recommended 0.1% solution[40]. All compounds were applied on the adaxial and abaxial leaf surfaces by immersing a leaf in the ethanolic solution of a given compound for 30 s.[20]. Control leaves of similar size were immersed in 70% ethanol that was used as a solvent for the studied compounds. Experiments were performed 1 h after the compounds application to allow the evaporation of the solvent. Every plant and aphid were used only once.
Aphid probing and the phloem sap uptake by M. persicae was monitored using the technique of electronic registration of aphid probing in plant tissues, known as EPG (= Electrical Penetration Graph), that is frequently employed in insect–plant relationship studies considering insects with sucking-piercing mouthparts[42]–[44]. In this experimental set-up, aphid and plant are connected to electrodes and thus made parts of an electric circuit, which is completed when the aphid inserts its stylets into the plant. Weak voltage is supplied in the circuit, and all changing electric properties are recorded as EPG waveforms that can be correlated with aphid activities and stylet position in plant tissues[45],[46]. The parameters describing aphid behaviour during probing and feeding, such as total time of probing, proportion of phloem patterns E1 and E2, number of probes, etc., are good indicators of plant suitability or interference of probing by chemical or physical factors in individual plant tissues[44]–[46]. In the present study, aphids were attached to a golden wire electrode with conductive silver paint (epgsystems. eu) and starved for 1 h prior to the experiment. Probing behaviour of 12 apterous females/studied compound and control was monitored for 8 h continuously with Giga-4 and Giga-8 DC EPG with 1 GΩ of input resistance recording equipment (EPG Systems, Wageningen, The Netherlands). Each aphid was given access to a freshly prepared plant and each aphid/plant combination was used only once. Various behavioural phases were labelled manually using the Stylet + software (www.epgsystems.eu). The following aphid behaviours were distinguished: no penetration (waveform 'np' – aphid stylets outside the plant), pathway phase—penetration of non-phloem tissues (waveforms 'ABC'), phloem phase (salivation into sieve elements, waveform ‘E1’ and ingestion of phloem sap, waveform ‘E2’), and xylem phase (ingestion of xylem sap, waveform 'G'). Waveform ‘G’ occurred rarely irrespective of the treatment. Therefore, in all calculations the xylem phase was added to the pathway phase and termed as probing in non-phloem tissues. The E1/E2 transition patterns were included in E2. Waveform patterns that were not terminated before the end of the experimental period (8 h) were not excluded from the calculations. The parameters derived from EPG recordings were analyzed according to their frequency and duration in configuration related to activities in peripheral and vascular tissues.
All statistical calculations related to data of the no-choice test were performed using StatSoft, Inc. (2014) STATISTICA (data analysis software system), version 12, www.statsoft.com. […]

MV4-11 cells = test: Antiproliferative activity, MTT assay; assay type: cell-based, human; conditions: for IC50: 72 h exposure, MTT, mean ± SD, n.a = no activity in concentration of 5, 25, 125, 625 μM; for Selectivity index SI, MV4-11: SI = IC50 BALB/3T3 / IC50 MV4-11
Protocol: Human biphenotypic B myelomonocytic leukemia MV4-11, human colon cancer LoVo cell line and normal mouse fibroblast BALB/3T3 cells were obtained from American Type Culture Collection (Rockville, Maryland, USA), human lung carcinoma A549 cells were obtained from European Collection of Authenticated Cell Cultures (UK). All the cell lines are being maintained at the Hirszfeld Institute of Immunology and Experimental Therapy, PAS, Wroclaw, Poland and were cultured according the procedure described before.
Cell lines were cultured according to the protocol described before. MV4-11 cells were cultured in RPMI 1640 medium (Gibco, UK) with 1.0 mM sodium pyruvate, and 10% fetal bovine serum (FBS) (all from Sigma-Aldrich, Germany). A549, LoVo and LoVo/DX cells were cultured in RPMI 1640 + Opti-MEM (1:1) (both from Gibco, UK) supplemented with 5% fetal bovine serum, 1.0 mM sodium pyruvate (LoVo and LoVo/DX cells) (all from Sigma Aldrich Germany) and 0.1 μg/mL doxorubicin chloride (Accord) (only LoVo/DX cells). BALB/3T3 cells in Dulbecco medium (IIET, Poland) supplemented with 10% fetal bovine serum (Sigma-Aldrich, Germany). All culture media were supplemented with 2 mM L-glutamine (Sigma-Aldrich, Germany), 100 units/mL penicillin, and 100 µg/mL streptomycin (both from Polfa Tarchomin S.A., Poland). All cell lines were grown at 37 °C with 5% CO2 humidified atmosphere.
The solutions of the compounds (50 mM) were prepared by dissolving the substances in DMSO (Sigma Aldrich, Germany). Then the tested compounds were diluted in culture medium to reach the final concentrations of 625, 125, 25 and 5 μM. Before adding of the tested compounds (24 h prior), the cells were plated in 96-well plates (Sarstedt, Germany) at a density of 1 × 10^4 or 0.5 × 10^4 (A549) cells per well. The assay was performed after 72 h of exposure to 625, 125, 25 and 5 μM of the tested agents. The in vitro cytotoxic effect of all agents was examined using the MTT (MV4-11) or SRB assay, described previously. The results were calculated as an IC50 (inhibitory concentration 50%) the concentration of tested agent, which is cytotoxic for 50% of the cancer cells. Each compound in each concentration was tested in triplicate in a single experiment, which was repeated 3–5 times.

LoVo/DX cells = test: Antiproliferative activity, SRB assay, doxorubicin resistant subline; assay type: cell-based, human; conditions: for IC50: 72 h exposure, SRB, mean ± SD, n.a = no activity in concentration of 5, 25, 125, 625 μM; for Selectivity index SI, LoVo/DX: SI = IC50 BALB/3T3 / IC50 LoVo/DX
Protocol: Cell lines were cultured according to the protocol described before. […] All culture media were supplemented with 2 mM L-glutamine (Sigma-Aldrich, Germany), 100 units/mL penicillin, and 100 µg/mL streptomycin (both from Polfa Tarchomin S.A., Poland). All cell lines were grown at 37 °C with 5% CO2 humidified atmosphere. The solutions of the compounds (50 mM) were prepared by dissolving the substances in DMSO (Sigma Aldrich, Germany). […] The in vitro cytotoxic effect of all agents was examined using the MTT (MV4-11) or SRB assay, described previously. […] Each compound in each concentration was tested in triplicate in a single experiment, which was repeated 3–5 times.

Compound: 3,7,11,15-tetramethylhexadec-2-en-1-ol [Phytol (1), reference compound]
Mean duration of probing (C + G + E) (Myzus persicae): 0.3 ± 0.1 h
Number of probes (Myzus persicae): 41.4 ± 7.6
Total duration of pathway (C) (Myzus persicae): 4.2 ± 0.4 h
Total duration of phloem phase (E) (Myzus persicae): 2.8 ± 0.5 h
Total duration of probing (C + G + E) (Myzus persicae): 7.1 ± 0.2 h
Number of probes before first phloem phase (Myzus persicae; listed as phytol): 27.0 (± 5.3)
Number of probes before first phloem phase (Myzus persicae; listed as phytol (1)): 27.0 ± 5.3
Time from first probe to first phloem phase (Myzus persicae; listed as phytol (1)): 2.7 ± 0.6 h
Duration of first phloem phase (Myzus persicae): 1.6 ± 0.5 h
Total duration of phloem salivation E1 (Myzus persicae): 8.4 ± 2.4 min
Total duration of phloem sap ingestion E2 (Myzus persicae): 2.7 ± 0.5 h
Number of probes < 3 min (Myzus persicae): 18.8 ± 3.6
Proportion of salivation in phloem phase (Myzus persicae): 18.3%
Proportion of phloem phase in total probing (Myzus persicae): 38.4%
IC50 (MV4-11 cells): 51.4 ± 3.6 µM
Selectivity index SI, MV4-11 (MV4-11 cells): 1.25
IC50 (LoVo/DX cells): 70.8 ± 3.9 µM
Selectivity index SI, LoVo/DX (LoVo/DX cells): 0.91

Compound: CC(C)CCCC(C)CCCC(C)CCC[C@]1(C)CC(=O)O[C@@H]1CBr (stereo in doubt) [compound 4, trans-5-Bromomethyl-4-methyl-4-(4′,8′,12′-trimethyltridecyl)dihydrofuran-2-one]
Mean duration of probing (C + G + E) (Myzus persicae): 0.9 ± 0.3 h
Number of probes (Myzus persicae): 20.8 ± 5.2
Total duration of pathway (C) (Myzus persicae): 2.4 ± 0.6 h
Total duration of phloem phase (E) (Myzus persicae): 4.8 ± 0.8 h
Total duration of probing (C + G + E) (Myzus persicae): 7.4 ± 0.3 h
Number of probes before first phloem phase (Myzus persicae): 17.2 ± 4.8
Time from first probe to first phloem phase (Myzus persicae): 2.7 ± 0.8 h
Duration of first phloem phase (Myzus persicae): 3.0 ± 0.9 h
Total duration of phloem salivation E1 (Myzus persicae): 1.8 ± 0.6 min
Total duration of phloem sap ingestion E2 (Myzus persicae): 4.8 ± 0.8 h
Number of probes < 3 min (Myzus persicae): 8.5 ± 3.6
Proportion of salivation in phloem phase (Myzus persicae): 1.5%
Proportion of phloem phase in total probing (Myzus persicae): 62.9%
IC50 (MV4-11 cells; Homo sapiens, MV4-11): 46.9 ± 11.7 µM
Selectivity index SI, MV4-11 (MV4-11 cells): 7.43
IC50 (LoVo/DX cells; Homo sapiens, LoVo/DX): 306 ± 136 µM
Selectivity index SI, LoVo/DX (LoVo/DX cells): 1.14

Compound: CC(C)CCCC(C)CCCC(C)CCC[C@]1(C)CC(=O)O[C@H]1CBr (stereo in doubt) [compound 5, cis-5-Bromomethyl-4-methyl-4-(4′,8′,12′-trimethyltridecyl)dihydrofuran-2-one]
Mean duration of probing (C + G + E) (Myzus persicae): 0.5 ± 0.1 h
Number of probes (Myzus persicae): 31.6 ± 9.1
Total duration of pathway (C) (Myzus persicae): 2.8 ± 0.5 h
Total duration of phloem phase (E) (Myzus persicae): 4.0 ± 0.7 h
Total duration of probing (C + G + E) (Myzus persicae): 7.1 ± 0.4 h
Number of probes before first phloem phase (Myzus persicae): 10.3 ± 3.1
Time from first probe to first phloem phase (Myzus persicae): 1.4 ± 0.3 h
Duration of first phloem phase (Myzus persicae): 2.2 ± 0.8 h
Total duration of phloem salivation E1 (Myzus persicae): 2.4 ± 0.6 min
Total duration of phloem sap ingestion E2 (Myzus persicae): 4.0 ± 0.7 h
Number of probes < 3 min (Myzus persicae): 7.1 ± 2.8
Proportion of salivation in phloem phase (Myzus persicae): 3.8%
Proportion of phloem phase in total probing (Myzus persicae): 54.0%
IC50 (MV4-11 cells; Homo sapiens, MV4-11): 52 ± 13.8 µM
Selectivity index SI, MV4-11 (MV4-11 cells): 8.15
IC50 (LoVo/DX cells; Homo sapiens, LoVo/DX): 261 ± 104 µM
Selectivity index SI, LoVo/DX (LoVo/DX cells): 1.62

Continued, in another order:

IC50 (MV4-11 cells; Homo sapiens, MV4-11): 48.3 ± 19.6 µM
IC50 (LoVo/DX cells; Homo sapiens, LoVo/DX): 188 ± 32.7 µM
Compound: CC(C)CCCC(C)CCCC(C)CCC[C@]1(C)CC(=O)O[C@@H]1CCl (stereo in doubt) [compound 6, trans-5-Chloromethyl-4-methyl-4-(4′,8′,12′-trimethyltridecyl)dihydrofuran-2-one]
Mean duration of probing (C + G + E) (Myzus persicae): 1.2 ± 0.7 h
Number of probes (Myzus persicae): 42.9 ± 10.4
Total duration of pathway (C) (Myzus persicae): 3.0 ± 0.5 h
Total duration of phloem phase (E) (Myzus persicae): 3.5 ± 0.8 h
Total duration of probing (C + G + E) (Myzus persicae): 6.6 ± 0.5 h
Number of probes before first phloem phase (Myzus persicae): 24.9 ± 9.0
Time from first probe to first phloem phase (Myzus persicae): 3.0 ± 0.8 h
Duration of first phloem phase (Myzus persicae): 2.0 ± 0.8 h
Total duration of phloem salivation E1 (Myzus persicae): 3.0 ± 1.2 min
Total duration of phloem sap ingestion E2 (Myzus persicae): 3.5 ± 0.8 h
Number of probes < 3 min (Myzus persicae): 20.3 ± 7.9
Proportion of salivation in phloem phase (Myzus persicae): 9.7%
Proportion of phloem phase in total probing (Myzus persicae): 46.7%
Selectivity index SI, MV4-11 (MV4-11 cells): 5.65
Selectivity index SI, LoVo/DX (LoVo/DX cells): 1.46

IC50 (MV4-11 cells; Homo sapiens, MV4-11): 110 ± 41.6 µM
IC50 (LoVo/DX cells; Homo sapiens, LoVo/DX): 237 ± 52.9 µM
Compound: CC(C)CCCC(C)CCCC(C)CCC[C@]1(C)CC(=O)O[C@H]1CCl (stereo in doubt) [compound 7, cis-5-chloromethyl-4-methyl-4-(4′,8′,12′-trimethyltridecyl)dihydrofuran-2-one]
Mean duration of probing (C + G + E) (Myzus persicae): 1.0 ± 0.4 h
Number of probes (Myzus persicae): 18.7 ± 4.6
Total duration of pathway (C) (Myzus persicae): 2.5 ± 0.5 h
Total duration of phloem phase (E) (Myzus persicae): 4.4 ± 0.8 h
Total duration of probing (C + G + E) (Myzus persicae): 7.1 ± 0.5 h
Number of probes before first phloem phase (Myzus persicae): 15.6 ± 4.7
Time from first probe to first phloem phase (Myzus persicae): 3.3 ± 0.8 h
Duration of first phloem phase (Myzus persicae): 3.6 ± 0.8 h
Total duration of phloem salivation E1 (Myzus persicae): 1.2 ± 0.6 min
Total duration of phloem sap ingestion E2 (Myzus persicae): 4.4 ± 0.8 h
Number of probes < 3 min (Myzus persicae): 9.6 ± 3.6
Proportion of salivation in phloem phase (Myzus persicae): 0.4%
Proportion of phloem phase in total probing (Myzus persicae): 56.9%
